Target: bovine serum albumin (BSA) (Bos taurus, UniProt P02769)
Assay: MALDI-TOF mass spectra of BSA with surfactant, intact and acid-degraded
Details: for BSA MALDI signal after surfactant degradation: degraded about 30 minutes in 1% TFA at pH 2.5
From the text: The various embodiments of non-ionic acid-labile surfactants and methods of use described herein may be better understood when read in conjunction with the following representative examples. The following examples are included for purposes of illustration and not limitation. MALDI-TOF spectra were acquired using an ABI 4800 mass spectrometer in the linear mode.
Referring to FIGS. 2A-C, 0.1% N-[2,2-Bis(pentyloxy)propan-1-aminocarbonyl]-β-maltosylamine was mixed with bovine serum albumin (BSA) in water. The samples were spotted onto a MALDI pre-spotted target with CHCA MALDI matrix using C8 reversed phase tips. FIG. 2A includes a mass spectra of 20 pmol BSA in water. BSA was detected at m/z 22344, m/z 33480, and m/z 66854. FIG. 2B includes a mass spectra of 20 pmol BSA dissolved in 0.1% N-[2,2-Bis(pentyloxy)propan-1-aminocarbonyl]-β-maltosylamine. […] FIG. 2C includes a mass spectra of 20 pmol BSA in 0.1% N-[2,2-Bis(pentyloxy)propan-1-aminocarbonyl]-β-maltosylamine after being degraded for about thirty (30) minutes in 1% TFA at pH 2.5. BSA was detected at m/z 22212, m/z 33309, and m/z 66460.
Referring to FIGS. 3A-C, 1% N-[2,2-Bis(pentyloxy)propan-1-aminocarbonyl]-β-maltosylamine was mixed with bovine serum albumin (BSA) in water. The samples were spotted onto a MALDI pre-spotted target with CHCA MALDI matrix using C8 reversed phase tips. FIG. 3A includes a mass spectra of 20 pmol BSA in water. BSA was detected at m/z 22344, m/z 33480, and m/z 66854. FIG. 3B includes a mass spectra of 20 pmol BSA dissolved in 1% N-[2,2-Bis(pentyloxy)propan-1-aminocarbonyl]-β-maltosylamine. […] FIG. 3C includes a mass spectra of 20 pmol BSA in 1% N-[2,2-Bis(pentyloxy)propan-1-aminocarbonyl]-β-maltosylamine after being degraded for about thirty (30) minutes in 1% TFA at pH 2.5. BSA was detected at m/z 22260, m/z 33377, and m/z 66527.
Referring to FIGS. 5A-C, 0.1% N-[2,2-Bis(hexyloxy)propan-1-aminocarbonyl]-β-maltosylamine was mixed with BSA. The samples were spotted onto a MALDI pre-spotted target with CHCA MALDI matrix using C8 reversed phase tips. FIG. 5A includes a mass spectra of 20 pmol BSA in water. BSA was detected at m/z 22344, m/z 33480, and m/z 66854. FIG. 5B includes a mass spectra of 20 pmol BSA dissolved in 0.1% N-[2,2-Bis(hexyloxy)propan-1-aminocarbonyl]-β-maltosylamine. […] FIG. 5C includes a mass spectra of 20 pmol BSA in 0.1% N-[2,2-Bis(phexyloxy)propan-1-aminocarbonyl]-β-maltosylamine after being degraded for about thirty (30) minutes in 1% TFA at pH 2.5. BSA was detected at m/z 22197, m/z 33284, and m/z 66405.

[1] = 20 pmol BSA dissolved in 0.1% surfactant

Sequence of bovine serum albumin (BSA) (P02769 25-607): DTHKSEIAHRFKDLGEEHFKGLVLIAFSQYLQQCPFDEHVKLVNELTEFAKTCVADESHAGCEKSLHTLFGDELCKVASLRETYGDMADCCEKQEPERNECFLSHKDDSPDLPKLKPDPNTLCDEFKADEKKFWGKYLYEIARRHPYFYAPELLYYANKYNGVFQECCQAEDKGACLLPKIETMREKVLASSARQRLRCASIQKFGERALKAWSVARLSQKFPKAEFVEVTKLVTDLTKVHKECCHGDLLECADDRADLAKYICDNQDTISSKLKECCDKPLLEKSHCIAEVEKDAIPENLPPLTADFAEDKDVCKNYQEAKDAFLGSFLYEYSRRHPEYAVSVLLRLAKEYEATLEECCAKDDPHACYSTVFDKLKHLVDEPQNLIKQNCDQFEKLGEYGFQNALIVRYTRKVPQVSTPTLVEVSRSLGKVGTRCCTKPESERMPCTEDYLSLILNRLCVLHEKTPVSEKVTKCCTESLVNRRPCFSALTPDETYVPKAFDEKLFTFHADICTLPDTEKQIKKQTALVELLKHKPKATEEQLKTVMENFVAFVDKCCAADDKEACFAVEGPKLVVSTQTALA

Row | SMILES | BSA MALDI signal, intact surfactant [1] | BSA MALDI signal after surfactant degradation (0.1% surfactant) | BSA MALDI signal, intact surfactant (20 pmol BSA dissolved in 1% surfactant) | BSA MALDI signal after surfactant degradation (1% surfactant)
1 | CCCCCCOC(C)(CNC(=O)NC1OC(CO)C(OC2OC(CO)C(O)C(O)C2O)C(O)C1O)OCCCCCC (stereo not drawn) [N-[2,2-Bis(hexyloxy)propan-1-aminocarbonyl]-β-maltosylamine] | no signal from the BSA was detected | a signal from the BSA was detected when the surfactant was degraded |  | 
2 | CCCCCOC(C)(CNC(=O)NC1OC(CO)C(OC2OC(CO)C(O)C(O)C2O)C(O)C1O)OCCCCC (stereo not drawn) [N-[2,2-Bis(pentyloxy)propan-1-aminocarbonyl]-β-maltosylamine] | no signal from the BSA was detected | a signal from the BSA was detected when the surfactant was degraded | no signal from the BSA was detected | a signal from the BSA was detected when the surfactant was degraded

Source: US9206226B2, “Non-ionic acid-labile surfactants and methods of use” (Protea Biosciences, Inc., priority 2011, dated 2015)
